Measurements published in patent publication US20170152269A1, “FUSED BICYCLIC COMPOUNDS AND THEIR USE AS CDK INHIBITORS” (priority 2016, published 2017).

What was measured:
CDK2 = biological target: T1, CDK2 (Homo sapiens, UniProt P24941); test: Lance TR-FRET kinase assay, CDK2; assay type: biochemical; conditions: ATP 50 μM, 60 min, read-out: CDK 2 inhibitory activity (IC50)
T1 construct: purchased ThermoFisher (Waltham, Mass.)
Procedure: (§1) Time Resolved-Fluorescent Resonance Energy Transfer (TR-FRET) was used to determine inhibitory ability of compounds A1˜A19, B1s and B1˜B12 against the enzymatic activity of CDK1, CDK2, CDK4, CDK5, CDK6, CDK7, and CDK9.
(§2) Inhibitory activity of compounds against CDK1/2/4/5/6/7 was assessed using Lance TR-FRET assay kits from Perkin Elmer Life Sciences (Waltham, Mass.). CDK1/2/4/5/6/7 enzymes were purchased from ThermoFisher (Waltham, Mass.). 2.5 μL of compound solutions and 2.5 μL of enzyme solutions in kinase assay buffer, which was 50 mM HEPES (pH 7.5) with 1 mM EGTA, 1 mM MgCl2, 2 mM DTT, and 0.01% Tween-20, were added into a white OptiPlate-384 plate followed by adding 5 μL of fluorescently labeled peptide substrates (Ulight-4E-BP1 for CDK4/6 and Ulight-MBP for CDK1/2/7/9) and ATP mixture solutions. Final concentrations of substrates and DMSO were 100 nM and 0.5%, respectively. Concentrations of ATP and different CDK enzymes were adjusted accordingly to achieve optimal enzymatic activities. Final CDK concentrations were 100, 500, 600, 100, 50, and 200 ng/well and ATP concentrations were 30, 50, 100, 20, 100, and 50 μM for CDK1/2/4/5/6/7, respectively. Assay plates were covered to protect from light and spun for 1 min at 700 RPM. Reactions were allowed to perform for 60 minutes in dark with gentle shaking at room temperature after which 5 μL of 40 mM EDTA in detection buffer was added to stop reactions followed 5 μL of the Eu labeled antibodies giving final concentrations of 2 nM to detect the phosphorylation of the peptide substrates. Assay plates were read with the EnVision™ Multilabel Reader in TR-FRET mode (excitation at 320 nm and emission at 665 nm). The percent of inhibition was calculated from the means of data points using the formula: 100−(Signalcompound−NoSignalbackground)*100/(Signalvehicle−NoSignalbackground). The IC50s were determined with GraphPad Prism by the non-linear sigmoidal curve fitting of data from 10 doses.

CDK4 = biological target: T2, CDK4 (Homo sapiens, UniProt P11802); test: Lance TR-FRET kinase assay, CDK4; assay type: biochemical; conditions: ATP 100 μM, 60 min, read-out: CDK 4 inhibitory activity (IC50)
T2 construct: purchased ThermoFisher (Waltham, Mass.)
T2 sequence (P11802 whole entry): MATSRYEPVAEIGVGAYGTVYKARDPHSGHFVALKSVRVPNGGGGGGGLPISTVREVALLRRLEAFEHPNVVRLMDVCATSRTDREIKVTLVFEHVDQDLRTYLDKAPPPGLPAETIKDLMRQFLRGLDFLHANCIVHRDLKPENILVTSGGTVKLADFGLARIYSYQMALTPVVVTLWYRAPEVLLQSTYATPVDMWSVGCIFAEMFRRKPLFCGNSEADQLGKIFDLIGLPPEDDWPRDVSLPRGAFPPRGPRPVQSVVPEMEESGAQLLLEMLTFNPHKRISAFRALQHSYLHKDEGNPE
T2 sequence (P24385 whole entry partner): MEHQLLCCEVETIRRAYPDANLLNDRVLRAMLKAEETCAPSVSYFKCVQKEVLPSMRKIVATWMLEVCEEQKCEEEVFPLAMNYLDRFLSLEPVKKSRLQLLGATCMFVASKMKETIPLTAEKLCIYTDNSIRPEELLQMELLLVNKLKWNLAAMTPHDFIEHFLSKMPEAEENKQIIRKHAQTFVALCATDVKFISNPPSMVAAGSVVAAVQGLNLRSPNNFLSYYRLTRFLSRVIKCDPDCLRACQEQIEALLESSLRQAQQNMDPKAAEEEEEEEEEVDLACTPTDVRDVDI
Procedure: as §2, with “2.5 μL of compound solutions and 2.5 μL of enzyme solutions in kinase assay buffer, which was 50 mM HEPES (pH 7.5) with 1 mM EGTA, 1 mM MgCl2, 2 mM DTT, and 0.01% Tween-20, were added into a white OptiPlate-384 plate followed by adding 5 μL of fluorescently labeled peptide substrates (Ulight-4E-BP1 for CDK4/6 and Ulight-MBP for CDK1/2/7/9) and ATP mixture solutions.” left out, “Assay plates were read with the EnVision™ Multilabel Reader in TR-FRET mode (excitation at 320 nm and emission at 665 nm).” left out

CDK9/cyclin T1 = biological target: T3, CDK9/cyclin T1 (Homo sapiens, UniProt P50750); test: LanthaScreen Eu kinase binding assay, CDK9; conditions: tracer 236 displacement, CDK9/cyclin T1 5 nM, 1 hour; read-out: CDK 9 inhibitory activity (IC50)
T3 construct: purchased ThermoFisher (Waltham, Mass.)
T3 sequence (P50750 whole entry): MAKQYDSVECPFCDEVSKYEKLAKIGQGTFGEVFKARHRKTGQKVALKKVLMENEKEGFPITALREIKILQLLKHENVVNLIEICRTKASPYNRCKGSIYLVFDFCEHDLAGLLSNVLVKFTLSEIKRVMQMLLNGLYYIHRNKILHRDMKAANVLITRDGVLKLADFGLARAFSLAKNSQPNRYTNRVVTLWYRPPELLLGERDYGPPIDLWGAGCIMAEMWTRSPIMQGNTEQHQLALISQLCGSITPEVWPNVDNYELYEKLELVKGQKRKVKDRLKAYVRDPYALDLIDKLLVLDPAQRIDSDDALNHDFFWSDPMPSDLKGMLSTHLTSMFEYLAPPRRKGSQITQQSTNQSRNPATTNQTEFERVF
T3 sequence (O60563 whole entry partner): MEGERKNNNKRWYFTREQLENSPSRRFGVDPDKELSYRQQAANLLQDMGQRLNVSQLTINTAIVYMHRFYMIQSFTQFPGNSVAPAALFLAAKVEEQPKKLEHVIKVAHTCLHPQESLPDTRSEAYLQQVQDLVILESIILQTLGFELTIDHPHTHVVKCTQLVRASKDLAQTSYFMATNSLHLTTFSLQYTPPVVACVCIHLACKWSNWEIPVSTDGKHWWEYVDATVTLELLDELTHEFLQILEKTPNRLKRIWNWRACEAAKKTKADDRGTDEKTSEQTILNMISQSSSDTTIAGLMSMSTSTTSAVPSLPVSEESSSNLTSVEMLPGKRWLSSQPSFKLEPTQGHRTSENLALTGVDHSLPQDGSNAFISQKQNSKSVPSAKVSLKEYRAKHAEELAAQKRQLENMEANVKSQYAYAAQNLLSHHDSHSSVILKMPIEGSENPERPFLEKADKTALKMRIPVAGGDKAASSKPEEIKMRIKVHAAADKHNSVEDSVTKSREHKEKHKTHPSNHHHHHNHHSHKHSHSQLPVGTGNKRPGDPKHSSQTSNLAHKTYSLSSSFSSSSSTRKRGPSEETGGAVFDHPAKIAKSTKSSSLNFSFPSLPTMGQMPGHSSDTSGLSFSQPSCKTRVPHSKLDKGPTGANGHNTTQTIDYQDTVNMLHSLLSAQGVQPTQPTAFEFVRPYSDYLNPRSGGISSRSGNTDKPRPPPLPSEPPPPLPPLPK
Procedure: as §1
The CDK9 kinase inhibitory activity of compounds was tested in the LanthaScreen Eu kinase binding assay from ThermoFisher. LanthaScreen® Eu Kinase binding assays are based on the binding and displacement of a proprietary, Alexa Fluor® 647-labeled, ATP-competitive kinase inhibitor scaffold (kinase tracer) to CDK9. CDK9/cyclin T1, Kinase tracer 236 and LanthaScreen® Eu-anti-His Antibody were purchased form ThermoFisher (Waltham, Mass.). 5 μL of CDK9/cyclin T1 (final 5 nM)/antibody (final 2 nM) mixture, 5 μL of compound in kinase buffer, and 5 μL of tracer (final 30 nM) were added to wells of a white OptiPlate-384 plate in this specific order. Assay plates were covered to protect from light, spun for 1 min at 700 RPM and incubated at room temperature for 1 hour. Assay plates were read with the EnVision™ Multilabel Reader in TR-FRET mode (excitation at 320 nm and emission at 665 nm). The percent of inhibition was calculated from the means of data points using the formula: 100−(Signalcompound−NoSignalbackgound)*100/(Signalvehicle−NoSignalbackground). The IC50s were determined with GraphPad Prism by the non-linear sigmoidal curve fitting of data from 10 doses.

CDK7 = biological target: T4, CDK7 (Homo sapiens, UniProt P50613); test: Lance TR-FRET kinase assay, CDK7; assay type: biochemical; conditions: ATP 50 μM, 60 min; for IC50: read-out: CDK 7 inhibitory activity (IC50)
T4 construct: purchased ThermoFisher (Waltham, Mass.)
T4 sequence (P50613 whole entry): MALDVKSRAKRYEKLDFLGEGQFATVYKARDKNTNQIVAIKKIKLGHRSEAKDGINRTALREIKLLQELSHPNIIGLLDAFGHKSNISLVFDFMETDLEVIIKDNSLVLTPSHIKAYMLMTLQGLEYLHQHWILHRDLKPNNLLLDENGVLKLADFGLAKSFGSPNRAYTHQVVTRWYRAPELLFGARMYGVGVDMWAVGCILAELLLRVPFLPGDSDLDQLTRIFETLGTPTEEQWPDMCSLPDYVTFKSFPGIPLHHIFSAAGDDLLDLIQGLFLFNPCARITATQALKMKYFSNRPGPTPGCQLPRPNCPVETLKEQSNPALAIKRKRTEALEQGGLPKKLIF
T4 sequence (P51946 whole entry partner): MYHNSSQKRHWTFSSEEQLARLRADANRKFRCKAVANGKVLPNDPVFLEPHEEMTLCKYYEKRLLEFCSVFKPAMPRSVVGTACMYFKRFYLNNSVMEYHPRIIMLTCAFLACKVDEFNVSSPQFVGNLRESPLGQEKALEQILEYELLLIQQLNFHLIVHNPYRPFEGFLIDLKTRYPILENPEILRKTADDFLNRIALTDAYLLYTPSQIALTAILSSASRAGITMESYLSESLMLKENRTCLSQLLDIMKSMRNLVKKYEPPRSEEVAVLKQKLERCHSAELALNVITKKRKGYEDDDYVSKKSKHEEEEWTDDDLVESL
T4 sequence (P51948 whole entry partner): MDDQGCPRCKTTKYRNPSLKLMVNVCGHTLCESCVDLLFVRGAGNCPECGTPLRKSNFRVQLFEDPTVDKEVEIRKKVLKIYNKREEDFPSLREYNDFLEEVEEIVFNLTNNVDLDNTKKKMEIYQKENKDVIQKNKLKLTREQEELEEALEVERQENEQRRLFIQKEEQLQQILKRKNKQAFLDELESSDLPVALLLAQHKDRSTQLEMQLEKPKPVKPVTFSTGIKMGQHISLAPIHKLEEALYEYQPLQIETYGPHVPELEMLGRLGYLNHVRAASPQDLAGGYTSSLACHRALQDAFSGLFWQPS
Procedure: as §2, with “2.5 μL of compound solutions and 2.5 μL of enzyme solutions in kinase assay buffer, which was 50 mM HEPES (pH 7.5) with 1 mM EGTA, 1 mM MgCl2, 2 mM DTT, and 0.01% Tween-20, were added into a white OptiPlate-384 plate followed by adding 5 μL of fluorescently labeled peptide substrates (Ulight-4E-BP1 for CDK4/6 and Ulight-MBP for CDK1/2/7/9) and ATP mixture solutions.” left out, “Assay plates were read with the EnVision™ Multilabel Reader in TR-FRET mode (excitation at 320 nm and emission at 665 nm).” left out

CDK1 = biological target: T5, CDK1 (Homo sapiens, UniProt P06493); test: Lance TR-FRET kinase assay, CDK1; assay type: biochemical; conditions: ATP 30 μM, 60 min, read-out: CDK 1 inhibitory activity (IC50)
T5 construct: purchased ThermoFisher (Waltham, Mass.)
T5 sequence (P06493 whole entry): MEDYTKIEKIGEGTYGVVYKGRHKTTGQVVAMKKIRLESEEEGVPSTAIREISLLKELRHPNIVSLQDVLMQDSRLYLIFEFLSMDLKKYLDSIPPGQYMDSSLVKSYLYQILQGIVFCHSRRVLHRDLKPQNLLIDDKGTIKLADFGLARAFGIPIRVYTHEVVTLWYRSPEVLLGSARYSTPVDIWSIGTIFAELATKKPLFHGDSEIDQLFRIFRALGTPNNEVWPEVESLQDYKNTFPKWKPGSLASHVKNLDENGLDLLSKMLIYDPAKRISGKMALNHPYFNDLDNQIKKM
T5 sequence (P14635 whole entry partner): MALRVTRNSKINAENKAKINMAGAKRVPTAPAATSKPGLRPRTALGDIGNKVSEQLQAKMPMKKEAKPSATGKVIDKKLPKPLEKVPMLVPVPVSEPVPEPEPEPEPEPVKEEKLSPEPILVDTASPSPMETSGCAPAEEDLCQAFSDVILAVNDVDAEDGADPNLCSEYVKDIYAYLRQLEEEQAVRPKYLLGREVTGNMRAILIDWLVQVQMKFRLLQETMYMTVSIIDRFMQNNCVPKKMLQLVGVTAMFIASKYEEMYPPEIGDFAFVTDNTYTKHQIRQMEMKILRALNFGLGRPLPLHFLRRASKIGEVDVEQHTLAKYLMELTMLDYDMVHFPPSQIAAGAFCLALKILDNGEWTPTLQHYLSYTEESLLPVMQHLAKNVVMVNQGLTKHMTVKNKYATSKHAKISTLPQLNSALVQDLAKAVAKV
Procedure: as §1, §2

CDK6 = biological target: T6, CDK6 (Homo sapiens, UniProt Q00534); test: Lance TR-FRET kinase assay, CDK6; assay type: biochemical
T6 construct: purchased ThermoFisher (Waltham, Mass.)
T6 sequence (Q00534 whole entry): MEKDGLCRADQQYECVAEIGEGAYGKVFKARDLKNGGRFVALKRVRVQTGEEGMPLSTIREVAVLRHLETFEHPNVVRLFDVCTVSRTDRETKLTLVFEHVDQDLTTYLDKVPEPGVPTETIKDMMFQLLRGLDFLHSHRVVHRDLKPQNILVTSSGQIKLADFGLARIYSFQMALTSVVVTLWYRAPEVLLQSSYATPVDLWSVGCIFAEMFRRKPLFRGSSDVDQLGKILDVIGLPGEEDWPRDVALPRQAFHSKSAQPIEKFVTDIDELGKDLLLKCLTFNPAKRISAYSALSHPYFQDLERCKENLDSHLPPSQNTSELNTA
T6 sequence (P24385 whole entry partner): as the sequence (P24385 whole entry partner) above
Procedure: as §1, §2

CDK5 = biological target: T7, CDK5 (Homo sapiens, UniProt Q00535); test: Lance TR-FRET kinase assay, CDK5; assay type: biochemical; conditions: ATP 20 μM, 60 min, read-out: CDK 5 inhibitory activity (IC50)
T7 construct: purchased ThermoFisher (Waltham, Mass.)
T7 sequence (Q00535 whole entry): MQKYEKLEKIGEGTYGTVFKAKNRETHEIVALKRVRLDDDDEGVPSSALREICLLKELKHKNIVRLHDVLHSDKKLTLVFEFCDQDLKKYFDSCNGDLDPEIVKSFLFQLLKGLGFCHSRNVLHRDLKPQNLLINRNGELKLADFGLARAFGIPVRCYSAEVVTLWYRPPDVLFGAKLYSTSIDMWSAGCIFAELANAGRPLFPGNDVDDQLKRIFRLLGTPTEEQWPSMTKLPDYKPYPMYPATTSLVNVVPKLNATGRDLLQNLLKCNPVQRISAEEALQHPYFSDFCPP
T7 sequence (Q15078 whole entry partner): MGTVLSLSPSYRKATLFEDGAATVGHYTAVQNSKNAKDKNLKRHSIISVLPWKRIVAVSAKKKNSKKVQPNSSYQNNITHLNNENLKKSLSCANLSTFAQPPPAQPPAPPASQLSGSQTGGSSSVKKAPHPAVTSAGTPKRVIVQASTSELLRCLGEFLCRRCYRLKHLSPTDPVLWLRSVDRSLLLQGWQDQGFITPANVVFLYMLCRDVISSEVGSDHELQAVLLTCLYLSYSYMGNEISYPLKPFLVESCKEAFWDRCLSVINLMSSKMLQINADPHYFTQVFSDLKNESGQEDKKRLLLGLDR
Procedure: as §1, §2

Compound	IC50 (CDK2)	IC50 (CDK4)	IC50 (CDK9/cyclin T1)	IC50 (CDK7)	IC50 (CDK1)	IC50 (CDK6)	IC50 (CDK5)	CDK 7 inhibitory activity (IC50) (CDK7)
N#Cc1sc2cnc(Nc3ccc(N4CCNCC4)cc3)cc2c1C1CCCC1 [Compound B3, 3-cyclopentyl-5-((4-(piperazin-1-yl)phenyl)amino)thieno[2,3-c]pyridine-2-carbonitrile]	5.2 nM	1.9 nM	1.8 nM	31.4 nM	15.1 nM	0.2 nM	–	–
CN(C)C(=O)c1sc2cnc(Nc3ccc(N4CCNCC4)cn3)cc2c1C1CCCC1 [Compound A1, 3-cyclopentyl-N,N-dimethyl-5-((5-(piperazin-1-yl)pyridin-2-yl)amino)thieno[2,3-c]pyridine-2-carboxamide]	346 nM	1.2 nM	5.3 nM	1100 nM	162 nM	0.66 nM	262 nM	–
CC(=O)N1CCN(c2ccc(Nc3cc4c(C5CCCC5)c(C#N)sc4cn3)nc2)CC1 [Compound B12, 5-((5-(4-acetylpiperazin-1-yl)pyridin-2-yl)amino)-3-cyclopentylthieno[2,3-c]pyridine-2-carbonitrile]	10.3 nM	4.1 nM	2.5 nM	9790 nM	26.2 nM	1.4 nM	–	–
N#Cc1sc2cnc(Nc3ccc(N4CCOCC4)cc3)cc2c1C1CCCC1 [Compound B6, 3-cyclopentyl-5-((4-morpholinophenyl)amino)thieno[2,3-c]pyridine-2-carbonitrile]	39.6 nM	222 nM	951 nM	–	1680 nM	19 nM	–	inactive
CN(C)C(=O)c1sc2cnc(Nc3ccc(N4CCNCC4)cn3)cc2c1C1CCCCC1 [Compound A5, 3-cyclohexyl-N,N-dimethyl-5-((5-(piperazin-1-yl)pyridin-2-yl)amino)thieno[2,3-c]pyridine-2-carboxamide]	942 nM	1.4 nM	13.4 nM	3290 nM	39.5 nM	1.1 nM	266 nM	–
N#Cc1sc2cnc(Nc3cnc(N4CCOCC4)nc3)cc2c1C1CCCC1 [Compound B8, 3-cyclopentyl-5-((2-morpholinopyrimidin-5-yl)amino)thieno[2,3-c]pyridine-2-carbonitrile]	824 nM	8660 nM	4590 nM	–	22000 nM	791 nM	–	inactive
CN1CCN(c2ccc(Nc3cc4c(C5CCCC5)c(C#N)sc4cn3)cc2)CC1 [Compound B4, 3-cyclopentyl-5-((4-(4-methylpiperazin-1-yl)phenyl)amino)thieno[2,3-c]pyridine-2-carbonitrile]	10.4 nM	1.9 nM	8.6 nM	47 nM	31.5 nM	0.7 nM	–	–
N#Cc1sc2cnc(Nc3ccc(N4CCOCC4)nc3)cc2c1C1CCCC1 [Compound B7, 3-cyclopentyl-5-((6-morpholinopyridin-3-yl)amino)thieno[2,3-c]pyridine-2-carbonitrile]	19.4 nM	61.9 nM	95.6 nM	–	324 nM	19.4 nM	–	inactive
N#Cc1sc2cnc(Nc3ccc(N4CCNCC4)nc3)cc2c1C1CCCC1 [Compound B2, 3-cyclopentyl-5-((6-(piperazin-1-yl)pyridin-3-yl)amino)thieno[2,3-c]pyridine-2-carbonitrile]	13.3 nM	2.4 nM	6.6 nM	53.9 nM	77.4 nM	1 nM	–	–
CN1CCN(c2ccc(Nc3cc4c(C5CCCC5)c(C#N)sc4cn3)nc2)CC1 [Compound B5, 3-cyclopentyl-5-((5-(4-methylpiperazin-1-yl)pyridin-2-yl)amino)thieno[2,3-c]pyridine-2-carbonitrile]	3.3 nM	0.7 nM	1 nM	22.1 nM	9.1 nM	0.3 nM	–	–
N#Cc1sc2cnc(Nc3cccc(N4CCOCC4)c3)cc2c1C1CCCC1 [Compound B10, 3-cyclopentyl-5-((3-morpholinophenyl)amino)thieno[2,3-c]pyridine-2-carbonitrile]	308 nM	1540 nM	308 nM	–	834 nM	838 nM	–	inactive
CN1CCN(c2cccc(Nc3cc4c(C5CCCC5)c(C#N)sc4cn3)c2)CC1 [Compound B9, 3-cyclopentyl-5-((3-(4-methylpiperazin-1-yl)phenyl)amino)thieno[2,3-c]pyridine-2-carbonitrile]	70.8 nM	582 nM	96.5 nM	872 nM	170 nM	120 nM	–	–
CS(=O)(=O)N1CCN(c2ccc(Nc3cc4c(C5CCCC5)c(C#N)sc4cn3)nc2)CC1 [Compound B11, 3-cyclopentyl-5-((5-(4-(methylsulfonyl)piperazin-1-yl)pyridin-2-yl)amino)thieno[2,3-c]pyridine-2-carbonitrile]	49.9 nM	17.7 nM	8.1 nM	–	101 nM	5.5 nM	–	inactive
N#Cc1sc2cnc(Nc3ccc(N4CCNCC4)cn3)cc2c1C1CCCC1 [Compound B1, 3-cyclopentyl-5-((5-(piperazin-1-yl)pyridin-2-yl)amino)thieno[2,3-c]pyridine-2-carbonitrile]	2.8 nM	1.1 nM	1.3 nM	14.9 nM	5.4 nM	0.3 nM	24.4 nM	–
